{"source": "patent US9512140B2", "about": "“(Thieno[2,3-b][1,5]benzoxazepin-4-yl)piperazin-1-yl compounds as dual activity H1 inverse agonists/5-HT2A antagonists” (priority 2011, dated 2016)", "tested_on": "Rats", "assay": "Sleep and behavioral monitoring in rats (EEG, EMG, motion)", "assay_type": "in vivo", "conditions": "for Rebound Insomnia, Adj. Mean: NREM+REM sleep in 7th-9th hours post-treatment; for Rebound Insomnia, Adj. Mean / REM inhibition, Adj. Mean / Cumulative Total sleep, Adj. Mean / Locomotor Activity Intensity, Adj. Mean: difference from vehicle; for REM inhibition, Adj. Mean: cumulative REM sleep, first 12 hr. post-treatment; for Average Sleep Bout, Adj. Mean / Longest Sleep Bout, Adj. Mean / Cumulative Total sleep, Adj. Mean / Cumulative NREM sleep, Adj. Mean / Locomotor Activity Intensity, Adj. Mean: first 6 hr. post-treatment; for Cumulative Total sleep, Adj. Mean: NREM+REM; for Cumulative NREM sleep, Adj. Mean: adjusted difference from vehicle controls", "protocol": "The compound of the present invention is tested in rats for its ability to increase the amount of sleep or decrease sleep interruption or both without undesired effects such as inhibition of REM sleep, waking motor impairment, and/or rebound insomnia. Test animals are continuously monitored by electro-encephalograms (EEG), electromyograms (EMG), and motion to measure cumulative nonREM sleep, cumulative total sleep, average sleep bout duration, longest sleep bout duration, rebound insomnia. REM sleep inhibition and locomotor activity intensity during wakefulness. Methods for such studies are known in the art (see for example methods described in Edgar D M, Seidel W F. Modafinil induces wakefulness without intensifying motor activity or subsequent rebound hypersomnolence in the rat. J Pharmacology & Experimental Therapeutics 1997; 283: 757-769; van Gelder R N, Edgar D M, Dement W C. Real-time automated sleep scoring: validation of a microcomputer-based system for mice. Sleep 1991, 14: 48-55; and Gross B A, Walsh C M, Turakhia A A, Booth V, Mashour G A, Poe G R. Open-source logic-based automated sleep scoring software using electrophysiological recordings in rats. J Neurosci Methods. 2009; 184(1):10-8.) Studies are conducted as follows:\nAdult, male Wistar rats (approximately 270-300 g at time of surgery) are surgically fitted for chronic recording of EEG, EMG, and motion as follows: Rats are surgically prepared with a cranial implant consisting of four stainless steel screws for EEG recording (two frontal [3.9 mm anterior from bregma, and ±2.0 mm mediolaterally] and two occipital [6.4 mm posterior from bregma, ±5.5 mm mediolaterally]), and with two Teflon-coated stainless steel wires for EMG recording (positioned under the nuchal trapezoid muscles). All leads are soldered to a miniature connector (Microtech, Boothwyn, Pa.) prior to surgery. The implant assembly is affixed to the skull by the combination of the stainless steel EEG recording screws, cyanoacrylate applied between the implant connector and skull, and dental acrylic. Locomotor activity is monitored via a miniature transmitter (Minimitter PDT4000G, Philips Respironics, Bend, Oreg.) surgically placed into the abdomen. At least 3 weeks are allowed for recovery.\nEach rat is housed individually within a microisolator cage modified with an inserted polycarbonate filter-top riser to allow more vertical headroom. A flexible cable that minimally restricts movement is connected at one end to a commutator afixed to the cage top and at the other end to the animal's cranial implant. Each cage is located within separate, ventilated compartments of a stainless steel sleep-wake recording chamber. Food and water are available ad libitum and the ambient temperature is maintained at about 23±1° C. A 24-hr light-dark cycle (LD 12:12) using fluorescent light is maintained throughout the study. Relative humidity averages approximately 50%. Animals are undisturbed for at least 30 hrs before and after each treatment.\nThe vehicle (placebo, methylcellulose 15 centipoise 0.25% in water) or one of the test compound dose levels is administered orally at 1 mL/kg pseudo-randomly such that no rat receives the same treatment twice, and no rat receives more than two of the 8 treatments in any one study. Each rat is removed from its cage for about a minute to be weighed and treated. At least 6 days “washout” period precede and follow each treatment. […]", "data": [{"smiles": "Cc1ccc2c(c1)Oc1sc(C)cc1C(N1CCN(CC(C)(C)C(=O)O)CC1)=N2", "note": "[Example 3, 3-[4-(2,8-Dimethylthieno[2,3-b][1,5]benzoxazepin-4-yl)piperazin-1-yl]-2,2-dimethyl-propanoic acid; 4-methylbenzenesulfonic acid]", "values": [{"measurement": "Rebound Insomnia, Adj. Mean", "setting": "0.025 mg/kg PO", "value": 0.3, "unit": "min"}, {"measurement": "REM inhibition, Adj. Mean", "setting": "0.025 mg/kg PO", "value": -2.7, "unit": "min"}, {"measurement": "Average Sleep Bout, Adj. Mean", "setting": "0.025 mg/kg PO", "value": "1.0 n-fold increase over vehicle controls"}, {"measurement": "Longest Sleep Bout, Adj. Mean", "setting": "0.025 mg/kg PO", "value": "1.0 n-fold increase over vehicle controls"}, {"measurement": "Cumulative Total sleep, Adj. Mean", "setting": "0.025 mg/kg PO", "value": -2.3, "unit": "min"}, {"measurement": "Cumulative NREM sleep, Adj. Mean", "setting": "0.025 mg/kg PO", "value": 1.3, "unit": "min"}, {"measurement": "Locomotor Activity Intensity, Adj. Mean", "setting": "0.025 mg/kg PO", "value": "−0.1 LMA counts per minute of EEG-defined wakefulness"}, {"measurement": "Rebound Insomnia, Adj. Mean", "setting": "0.25 mg/kg PO", "value": 1.0, "unit": "min"}, {"measurement": "REM inhibition, Adj. Mean", "setting": "0.25 mg/kg PO", "value": -1.5, "unit": "min"}, {"measurement": "Average Sleep Bout, Adj. Mean", "setting": "0.25 mg/kg PO", "value": "1.6 n-fold increase over vehicle controls"}, {"measurement": "Longest Sleep Bout, Adj. Mean", "setting": "0.25 mg/kg PO", "value": "1.6 n-fold increase over vehicle controls"}, {"measurement": "Cumulative Total sleep, Adj. Mean", "setting": "0.25 mg/kg PO", "value": 33.5, "unit": "min"}, {"measurement": "Cumulative NREM sleep, Adj. Mean", "setting": "0.25 mg/kg PO", "value": 34.3, "unit": "min"}, {"measurement": "Locomotor Activity Intensity, Adj. Mean", "setting": "0.25 mg/kg PO", "value": "−1.6 LMA counts per minute of EEG-defined wakefulness"}, {"measurement": "Rebound Insomnia, Adj. Mean", "setting": "0.5 mg/kg PO", "value": -0.3, "unit": "min"}, {"measurement": "REM inhibition, Adj. Mean", "setting": "0.5 mg/kg PO", "value": 0.7, "unit": "min"}, {"measurement": "Average Sleep Bout, Adj. Mean", "setting": "0.5 mg/kg PO", "value": "1.6 n-fold increase over vehicle controls"}, {"measurement": "Longest Sleep Bout, Adj. Mean", "setting": "0.5 mg/kg PO", "value": "2.1 n-fold increase over vehicle controls"}, {"measurement": "Cumulative Total sleep, Adj. Mean", "setting": "0.5 mg/kg PO", "value": 21.7, "unit": "min"}, {"measurement": "Cumulative NREM sleep, Adj. Mean", "setting": "0.5 mg/kg PO", "value": 21.7, "unit": "min"}, {"measurement": "Locomotor Activity Intensity, Adj. Mean", "setting": "0.5 mg/kg PO", "value": "0.0 LMA counts per minute of EEG-defined wakefulness"}, {"measurement": "Rebound Insomnia, Adj. Mean", "setting": "1 mg/kg PO", "value": -3.8, "unit": "min"}, {"measurement": "REM inhibition, Adj. Mean", "setting": "1 mg/kg PO", "value": 0.1, "unit": "min"}, {"measurement": "Average Sleep Bout, Adj. Mean", "setting": "1 mg/kg PO", "value": "1.7 n-fold increase over vehicle controls"}, {"measurement": "Longest Sleep Bout, Adj. Mean", "setting": "1 mg/kg PO", "value": "2.2 n-fold increase over vehicle controls"}, {"measurement": "Cumulative Total sleep, Adj. Mean", "setting": "1 mg/kg PO", "value": 30.8, "unit": "min"}, {"measurement": "Cumulative NREM sleep, Adj. Mean", "setting": "1 mg/kg PO", "value": 31.9, "unit": "min"}, {"measurement": "Locomotor Activity Intensity, Adj. Mean", "setting": "1 mg/kg PO", "value": "−2.5 LMA counts per minute of EEG-defined wakefulness"}, {"measurement": "Rebound Insomnia, Adj. Mean", "setting": "3 mg/kg PO", "value": -1.3, "unit": "min"}, {"measurement": "REM inhibition, Adj. Mean", "setting": "3 mg/kg PO", "value": -4.2, "unit": "min"}, {"measurement": "Average Sleep Bout, Adj. Mean", "setting": "3 mg/kg PO", "value": "1.5 n-fold increase over vehicle controls"}, {"measurement": "Longest Sleep Bout, Adj. Mean", "setting": "3 mg/kg PO", "value": "1.9 n-fold increase over vehicle controls"}, {"measurement": "Cumulative Total sleep, Adj. Mean", "setting": "3 mg/kg PO", "value": 26.9, "unit": "min"}, {"measurement": "Cumulative NREM sleep, Adj. Mean", "setting": "3 mg/kg PO", "value": 29.2, "unit": "min"}, {"measurement": "Locomotor Activity Intensity, Adj. Mean", "setting": "3 mg/kg PO", "value": "−2.6 LMA counts per minute of EEG-defined wakefulness"}, {"measurement": "Rebound Insomnia, Adj. Mean", "setting": "10 mg/kg PO", "value": 0.4, "unit": "min"}, {"measurement": "REM inhibition, Adj. Mean", "setting": "10 mg/kg PO", "value": -12.1, "unit": "min"}, {"measurement": "Average Sleep Bout, Adj. Mean", "setting": "10 mg/kg PO", "value": "1.7 n-fold increase over vehicle controls"}, {"measurement": "Longest Sleep Bout, Adj. Mean", "setting": "10 mg/kg PO", "value": "1.9 n-fold increase over vehicle controls"}, {"measurement": "Cumulative Total sleep, Adj. Mean", "setting": "10 mg/kg PO", "value": 32.8, "unit": "min"}, {"measurement": "Cumulative NREM sleep, Adj. Mean", "setting": "10 mg/kg PO", "value": 36.7, "unit": "min"}, {"measurement": "Locomotor Activity Intensity, Adj. Mean", "setting": "10 mg/kg PO", "value": "−3.7 LMA counts per minute of EEG-defined wakefulness"}, {"measurement": "change in awake time following treatment, dose response curve (FIG. 2)", "setting": "rat", "value": "does not result in rebound insomnia"}, {"measurement": "change in cumulative REM sleep time, dose response curve (FIG. 1)", "setting": "rat", "value": "does not inhibit REM sleep"}, {"measurement": "change in distances moved during periods of wakefulness, dose response curve (FIG. 3)", "setting": "rat", "value": "does not inhibit or stimulate normal activity"}]}]}
